{
  "source": "paper PMC8319832",
  "about": "“Fine-Tuning of Alkaline Residues on the Hydrophilic Face Provides a Non-toxic Cationic α-Helical Antimicrobial Peptide Against Antibiotic-Resistant ESKAPE Pathogens” (Frontiers in Microbiology, 2021)",
  "key": {"[1]": {"test_system": "E. faecalis 901", "experiment": "MIC, broth dilution", "type": "cell-based", "settings": "CLSI broth dilution, MHB, 37°C, 20 h, OD630, at least three repeats; clinical isolate", "description": "(§1) All experiments were repeated at least three times."}, "[2]": {"test_system": "S. epidermidis 6943", "experiment": "MIC, broth dilution", "type": "cell-based", "settings": "CLSI broth dilution, MHB, 37°C, 20 h, OD630, at least three repeats; clinical isolate, MRSE", "description": "as §1"}, "[3]": {"test_system": "S. epidermidis 888", "experiment": "MIC, broth dilution", "type": "cell-based", "settings": "CLSI broth dilution, MHB, 37°C, 20 h, OD630, at least three repeats; clinical isolate", "description": "as §1"}, "[4]": {"test_system": "S. epidermidis 9092", "experiment": "MIC, broth dilution", "type": "cell-based", "settings": "CLSI broth dilution, MHB, 37°C, 20 h, OD630, at least three repeats; clinical isolate, MRSE", "description": "as §1"}, "[5]": {"test_system": "E. faecalis ATCC 29212", "experiment": "MIC, broth dilution", "type": "cell-based", "procedure": "as §1\n(§2) To study the influence of physiological ions on the antimicrobial activities of the peptides, The MICs of the peptides were also determined against the standard bacterial strains cultured in MHB containing various salts at their physiological concentrations (150 mM NaCl, 4.5 mM KCl, 1 mM MgCl2, 2 mM CaCl2, 6 μM NH4HCO3, and 4 μM FeCl3) ([Ma et al., 2016])."}, "[6]": {"test_system": "A. baumannii 13012", "experiment": "MIC, broth dilution", "type": "cell-based, Acinetobacter baumannii", "settings": "CLSI broth dilution, MHB, 37°C, 20 h, OD630, at least three repeats; clinical isolate, CRE, MDR", "description": "as §1"}, "[7]": {"test_system": "A. baumannii 13079", "experiment": "MIC, broth dilution", "type": "cell-based, Acinetobacter baumannii", "settings": "CLSI broth dilution, MHB, 37°C, 20 h, OD630, at least three repeats; clinical isolate, CRE, MDR", "description": "as §1"}, "[8]": {"test_system": "A. baumannii 9068", "experiment": "MIC, broth dilution", "type": "cell-based, Acinetobacter baumannii", "settings": "CLSI broth dilution, MHB, 37°C, 20 h, OD630, at least three repeats; clinical isolate, CRE, MDR", "description": "as §1"}, "[9]": {"test_system": "A. baumannii 906", "experiment": "MIC, broth dilution", "type": "cell-based, Acinetobacter baumannii", "settings": "CLSI broth dilution, MHB, 37°C, 20 h, OD630, at least three repeats; clinical isolate, CRE, MDR", "description": "as §1"}, "[10]": {"test_system": "K. pneumoniae ATCC 700603", "experiment": "MIC, broth dilution", "type": "cell-based, Klebsiella pneumoniae", "procedure": "as §1, §2"}, "[11]": {"test_system": "K. pneumoniae 9126", "experiment": "MIC, broth dilution", "type": "cell-based, Klebsiella pneumoniae", "settings": "CLSI broth dilution, MHB, 37°C, 20 h, OD630, at least three repeats; clinical isolate, CRE", "description": "as §1"}, "[12]": {"test_system": "human embryonic kidney cell 293T (HEK293T)", "experiment": "Cytotoxicity, CCK-8", "type": "cell-based", "settings": "up to 40 μg ml^–1, 24 h, CCK-8, OD 450 nm, three independent experiments", "procedure": "(§3) The cytotoxicity of the peptide was determined against mouse fibroblast cells L929 and human embryonic kidney cell 293T (HEK293T). Briefly, the cells were seeded at a density of 8,000 cells per well in a 96-well plate and cultured for 24 h in Dulbecco’s Modified Eagle Medium (DMEM, Gibco) supplemented with 10% fetal bovine serum (FBS, Gibco), 2 mM L-glutamine, 100 U ml^–1 penicillin, […] streptomycin (1% P/S, Invitrogen^TM), and at 37°C in a 5% of CO2 atmosphere. Then, different concentrations of the peptide (0, 10, 20, 30, and 40 μg ml^–1) were added into each well and co-incubated with the cells for 24 h. After 2 h incubation with 10 μM 2-(2-methoxy-4-nitrophenyl)-3-(4-nitrophenyl)-5-(2,4-disulfophenyl)-2H-tetrazolium (CCK-8, Yeasen, China), the cytotoxicity of the peptide was determined by measuring the optical density at 450 nm ([Wu et al., 2014]; [Li et al., 2020])."}, "[13]": {"test_system": "mouse fibroblast cells L929", "experiment": "Cytotoxicity, CCK-8", "type": "cell-based", "settings": "at 40 μg ml^–1, 24 h, CCK-8, OD 450 nm, three independent experiments", "procedure": "as §3"}, "[14]": {"test_system": "ESBL-producing E. coli, CRE- and MDR P. aeruginosa, CRE- and MDR A. baumannii", "experiment": "MIC, summary over resistant gram-negative strains", "type": "cell-based", "settings": "summary of Table 4", "description": "as §1"}, "[15]": {"settings": "CLSI broth dilution, MHB, 37°C, 20 h, OD630, at least three repeats, standard strain"}, "[16]": {"settings": "salt sensitivity test, MHB, control without addition of salt ions"}},
  "note": "Where a SMILES comes first, the peptide text is derived from it.",
  "data": [
    {"smiles": "CC[C@H](C)[C@H](NC(=O)[C@H](CCCCN)NC(=O)[C@H](CCCCN)NC(=O)[C@@H](NC(=O)[C@@H](N)Cc1ccccc1)[C@@H](C)CC)C(=O)N[C@@H](C)C(=O)N[C@@H](CCCCN)C(=O)N[C@@H](CC(C)C)C(=O)N[C@@H](CC(C)C)C(=O)N[C@@H](CCCCN)C(=O)N[C@@H](CCCCN)C(=O)N[C@H](C(=O)N[C@@H](Cc1ccccc1)C(N)=O)[C@@H](C)CC", "note": "[BmKn2-7K] (H-FIKKIAKLLKKIF-NH2)", "values": [
      {"measurement": "MIC", "setting": "[1]", "value": 10, "unit": "µg/mL"},
      {"measurement": "MIC", "setting": "[2]", "value": 2.5, "unit": "µg/mL"},
      {"measurement": "MIC", "setting": "[3]", "value": 2.5, "unit": "µg/mL"},
      {"measurement": "MIC", "setting": "[4]", "value": 2.5, "unit": "µg/mL"},
      {"measurement": "MIC", "setting": "[5]; [15]", "value": 5, "unit": "µg/mL"},
      {"measurement": "MIC", "setting": "[5]; MHB with 4 μM FeCl3", "value": 20, "unit": "µg/mL"},
      {"measurement": "MIC", "setting": "[5]; MHB with 6 μM NH4HCO3", "value": 20, "unit": "µg/mL"},
      {"measurement": "MIC", "setting": "[5]; MHB with 1 mM MgCl2", "value": 20, "unit": "µg/mL"},
      {"measurement": "MIC", "setting": "[5]; MHB with 2 mM CaCl2", "value": 10, "unit": "µg/mL"},
      {"measurement": "MIC", "setting": "[5]; MHB with 4.5 mM KCl", "value": 20, "unit": "µg/mL"},
      {"measurement": "MIC", "setting": "[5]; MHB with 150 mM NaCl", "value": 10, "unit": "µg/mL"},
      {"measurement": "MIC", "setting": "[5]; [16]", "value": 5, "unit": "µg/mL"},
      {"measurement": "MIC", "setting": "[6]", "value": 2.5, "unit": "µg/mL"},
      {"measurement": "MIC", "setting": "[7]", "value": 2.5, "unit": "µg/mL"},
      {"measurement": "MIC", "setting": "[8]", "value": 2.5, "unit": "µg/mL"},
      {"measurement": "MIC", "setting": "[9]", "value": 2.5, "unit": "µg/mL"},
      {"measurement": "MIC", "setting": "[10]; [15]", "value": 10, "unit": "µg/mL"},
      {"measurement": "MIC", "setting": "[10]; MHB with 4 μM FeCl3", "value": 10, "unit": "µg/mL"},
      {"measurement": "MIC", "setting": "[10]; MHB with 6 μM NH4HCO3", "value": 10, "unit": "µg/mL"},
      {"measurement": "MIC", "setting": "[10]; MHB with 1 mM MgCl2", "value": 10, "unit": "µg/mL"},
      {"measurement": "MIC", "setting": "[10]; MHB with 2 mM CaCl2", "value": 10, "unit": "µg/mL"},
      {"measurement": "MIC", "setting": "[10]; MHB with 4.5 mM KCl", "value": 10, "unit": "µg/mL"},
      {"measurement": "MIC", "setting": "[10]; MHB with 150 mM NaCl", "value": 5, "unit": "µg/mL"},
      {"measurement": "MIC", "setting": "[10]; [16]", "value": 10, "unit": "µg/mL"},
      {"measurement": "MIC", "setting": "[11]", "value": 5, "unit": "µg/mL"},
      {"measurement": "cytotoxicity (cell viability)", "setting": "[12]", "value": "non-toxic"},
      {"measurement": "cytotoxicity (cell viability)", "setting": "[13]", "value": "minor cytotoxicity"},
      {"measurement": "MIC against ESBL E. coli, CRE/MDR P. aeruginosa, CRE/MDR A. baumannii", "setting": "[14]", "value": "2.5–10 μg ml^–1"}
    ]}
  ]
}
